Data: article PMC7169845, “Synthesis and Bioactivity of Phthalimide Analogs as Potential Drugs to Treat Schistosomiasis, a Neglected Disease of Poverty” (Pharmaceuticals, 2020)

Experiments:
[1] = tested on: S. mansoni somules (schistosomula, post-infective larvae); experiment: Phenotypic screen of S. mansoni somules (severity score); assay type: cell-based, Schistosoma mansoni; parameters: key to SOMULE DESCRIPTORS @ 10 µM, 24 h: Dark = dark; S = Slow; O = overactive; I = Immobile; R = shape altered from normal (either larger or smaller); Deg = degenerative changes; D = dead; pD = "partial death:" % of worms in a well that appear to be dead; details: for Somule Severity Score (10 µM) 24 h: score 0 (no effect) to 4 (maximum), averaged across two experiments; for SOMULE SEVERITY SCORES @ 10 µM, 24 / SOMULE SEVERITY SCORES @ 10 µM, 48 / SOMULE SEVERITY SCORES @ 10 µM, 72: score 0-4; for SOMULE SEVERITY SCORES @ 10 µM, 48 / Somule Severity Score (10 µM) 48 h: 48 h; for Somule Severity Score (10 µM) 48 h / Somule Severity Score (10 µM) 72 h: score 0 to 4
Description: (§1) Functionalized Pht-based molecules were synthesized, and phenotypically screened at 10 µM as a function of time against S. Mansoni somules (up to 72 h) and adults (up to 24 h). The resulting phenotypes were classified using a previously described nomenclature that records the many non-exclusive changes (descriptors) that can occur in the parasite in response to chemical insult. Each descriptor is converted into a value from 0 (no effect) to 4 (maximal effect) to allow for comparisons of effects on the parasite between compounds [40, 41, 42, 43]. For consistency, we consider a score of 2 to be the minimum for a compound to be considered active.
(§2) Maintenance of the S. mansoni (Naval Medical Research Institute (NMRI) isolate), life cycle involved male Golden Syrian Hamsters and Biomphalaria glabrata snails (NMRI isolate), as the definitive and intermediate hosts, respectively. Use of hamsters was approved by the Institutional Animal Care and Use Committee of the University of California San Diego. The preparation of somules (post-infective larvae derived from infectious larvae called cercariae) and adult worms (≥42-days-old), and their co-incubation with test compounds using a customized Basch incubation medium were as described. Screens of two developmental stages were employed in order to identify compounds with a potential broader spectrum of efficacy than the current drug, PZQ, which is deficient in this regard. Screens with somules employed 96-well round-bottomed plates and 40–50 animals/well, whereas screens with adults employed 24-well flat-bottomed plates and approximately 5–7 males and 2–3 females/well. Screens employed a final compound concentration of 10 µM in DMSO (at 0.5% and 0.1% final concentrations for somules and adults, respectively). The complex and often dynamic phenotypic responses that the schistosome parasite is capable of were observed using an Axiovert A1 inverted microscope at the times indicated in the data table. Observations were codified using a defined nomenclature that involves simple “descriptors”, to convey changes in shape, motility and appearance compared to DMSO controls. Each descriptor was given a value of 1 and these were added up to yield a “severity score” with a maximum of 4. Evidence of degeneracy or death was awarded a value of 4 for adult parasites specifically, the inability to adhere to the bottom of the well using oral or ventral suckers was given a score of 1 and damage to the tegument (surface) was awarded a value of 4 on the understanding that such damage in vivo would compromise survival. Scores were averaged across the two experiments.

S. mansoni adults = experiment: Phenotypic screen of S. mansoni adult worms (severity score); assay type: cell-based, Schistosoma mansoni; details: for ADULT SEVERITY SCORES @ 10 µM, 1 h / ADULT SEVERITY SCORES @ 10 µM, 5 h / ADULT SEVERITY SCORES @ 10 µM, 24 h: score 0-4; for Adult Severity Score (10 µM) 1 h / Adult Severity Score (10 µM) 5 h / Adult Severity Score (10 µM) 24 h: score 0 to 4
Description: as §1, §2

HepG2-A16-CD81EGFP cells = experiment: HepG2 cell cytotoxicity assay (CellTiter-Glo); assay type: cell-based; details: Homo sapiens, 72 h; for EC50: counter toxicity
Description: HepG2-A16-CD81EGFP cells (human hepatocarcinoma HepG2 cells stably transformed to express the tetraspanin CD81 receptor [51, 52]) were cultured at 37 °C in 5% CO2 in DMEM (without phenol red; Thermo Fisher Scientific, Waltham, MA, USA) supplemented with 10% FBS, 0.29 mg/mL glutamine, 100-unit penicillin and 100 μg/mL streptomycin. For cytotoxicity assays, compounds were prepared in 12-point 1:3 serial dilutions in DMSO starting at 10 mM. Then, 50 nL of compound (0.5% final DMSO concentration) were transferred with an Acoustic Transfer System (ATS) (Biosero) into white, solid bottom 1536-well assay plates (Greiner BioOne custom GNF mold; Monroe, NC, USA). Puromycin (12-point serial dilution starting at 10 μM) and 0.5% DMSO were used as positive and negative controls, respectively. After addition of compound, HepG2-A16-CD81EGFP cells in 10 µL of the above medium (5% FBS) were seeded into the assay plates at a density of 3,000 cells per well. Assay plates were incubated at 37 °C in 5% CO2for 72 h. To assess the HepG2 viability, the assay medium was removed by inverted centrifugation of the plate at 150 xg for 30 s. Then, 2 μL per well of CellTiter-Glo reagent (Promega diluted 1:2 with deionized water) was added using a MicroFlo liquid handler (BioTek). Immediately after addition of the CellTiter-Glo reagent, the luminescence was measured with an EnVision Multilabel reader (PerkinElmer). EC50 values were calculated using the normalized bioluminescence intensity and a non-linear, variable slope, four-parameter regression curve-fitting model in Prism 5 (GraphPad Software Inc., San Diego, CA, USA).

CCC(C)C(c1nc2ccccc2n1Cc1cn(-c2c(F)cccc2F)nn1)N1C(=O)c2ccccc2C1=O (stereo not shown) [6x, 2-(1-(1-((1-(2,6-Difluorophenyl)-1H-1,2,3-triazol-4-yl)methyl)-1H-benzo[d]imidazol-2-yl)-2-methylbutyl)isoindoline-1,3-dione]
Somule Severity Score (10 µM) 24 h ([1]; 24 h): 0
SOMULE SEVERITY SCORES @ 10 µM, 24 ([1]; 24 h): 0
SOMULE SEVERITY SCORES @ 10 µM, 48 [1]: 0
Somule Severity Score (10 µM) 48 h [1]: 0
SOMULE DESCRIPTORS @ 10 µM, 72 h ([1]; 72 h, phenotypic descriptors): Dark, R
SOMULE SEVERITY SCORES @ 10 µM, 72 ([1]; 72 h): 2
ADULT SEVERITY SCORES @ 10 µM, 1 h (S. mansoni adults): 0
Adult Severity Score (10 µM) 1 h (S. mansoni adults): 0
ADULT SEVERITY SCORES @ 10 µM, 5 h (S. mansoni adults): 0
Adult Severity Score (10 µM) 5 h (S. mansoni adults): 0
ADULT SEVERITY SCORES @ 10 µM, 24 h (S. mansoni adults): 0
Adult Severity Score (10 µM) 24 h (S. mansoni adults): 0
IC50 (HepG2-A16-CD81EGFP cells): > 100 µM
EC50 (HepG2-A16-CD81EGFP cells): > 100 µM

CC(c1nc2ccccc2n1Cc1cn(-c2ccc(F)cc2)nn1)N1C(=O)c2ccccc2C1=O (stereo not shown) [6y, 2-(1-(1-((1-(4-Fluorophenyl)-1H-1,2,3-triazol-4-yl)methyl)-1H-benzo[d]imidazol-2-yl)ethyl)isoindoline-1,3-dione]
Somule Severity Score (10 µM) 24 h ([1]; 24 h): 0
SOMULE SEVERITY SCORES @ 10 µM, 24 ([1]; 24 h): 0
SOMULE SEVERITY SCORES @ 10 µM, 48 [1]: 0
Somule Severity Score (10 µM) 48 h [1]: 0
SOMULE SEVERITY SCORES @ 10 µM, 72 ([1]; 72 h): 0
Somule Severity Score (10 µM) 72 h ([1]; 72 h): 0
ADULT SEVERITY SCORES @ 10 µM, 1 h (S. mansoni adults): 0
Adult Severity Score (10 µM) 1 h (S. mansoni adults): 0
ADULT SEVERITY SCORES @ 10 µM, 5 h (S. mansoni adults): 0
Adult Severity Score (10 µM) 5 h (S. mansoni adults): 0
ADULT SEVERITY SCORES @ 10 µM, 24 h (S. mansoni adults): 0
Adult Severity Score (10 µM) 24 h (S. mansoni adults): 0
IC50 (HepG2-A16-CD81EGFP cells): > 100 µM
EC50 (HepG2-A16-CD81EGFP cells): > 100 µM

Cc1ccc(-n2cc(Cn3c(C(C)N4C(=O)c5ccccc5C4=O)nc4ccccc43)nn2)cc1 (stereo not shown) [6z, 2-(1-(1-((1-(p-Tolyl)-1H-1,2,3-triazol-4-yl)methyl)-1H-benzo[d]imidazol-2-yl)ethyl)isoindoline-1,3-dione]
SOMULE DESCRIPTORS @ 10 µM, 24 h ([1]; 24 h, phenotypic descriptors): R
Somule Severity Score (10 µM) 24 h ([1]; 24 h): 1
SOMULE SEVERITY SCORES @ 10 µM, 24 ([1]; 24 h): 1
SOMULE SEVERITY SCORES @ 10 µM, 48 [1]: 0
Somule Severity Score (10 µM) 48 h [1]: 0
SOMULE SEVERITY SCORES @ 10 µM, 72 ([1]; 72 h): 0
Somule Severity Score (10 µM) 72 h ([1]; 72 h): 0
ADULT SEVERITY SCORES @ 10 µM, 1 h (S. mansoni adults): 0
Adult Severity Score (10 µM) 1 h (S. mansoni adults): 0
ADULT SEVERITY SCORES @ 10 µM, 5 h (S. mansoni adults): 0
Adult Severity Score (10 µM) 5 h (S. mansoni adults): 0
ADULT SEVERITY SCORES @ 10 µM, 24 h (S. mansoni adults): 0
Adult Severity Score (10 µM) 24 h (S. mansoni adults): 0
IC50 (HepG2-A16-CD81EGFP cells): > 100 µM
EC50 (HepG2-A16-CD81EGFP cells): > 100 µM

CCC(C)C(c1nc2ccccc2n1Cc1cn(-c2ccccc2F)nn1)N1C(=O)c2ccccc2C1=O (stereo not shown) [6v, 2-(1-(1-((1-(2-Fluorophenyl)-1H-1,2,3-triazol-4-yl)methyl)-1H-benzo[d]imidazol-2-yl)-2-methylbutyl)isoindoline-1,3-dione]
Somule Severity Score (10 µM) 24 h ([1]; 24 h): 0
SOMULE SEVERITY SCORES @ 10 µM, 24 ([1]; 24 h): 0
SOMULE SEVERITY SCORES @ 10 µM, 48 [1]: 0
Somule Severity Score (10 µM) 48 h [1]: 0
SOMULE SEVERITY SCORES @ 10 µM, 72 ([1]; 72 h): 0
Somule Severity Score (10 µM) 72 h ([1]; 72 h): 0
ADULT SEVERITY SCORES @ 10 µM, 1 h (S. mansoni adults): 0
Adult Severity Score (10 µM) 1 h (S. mansoni adults): 0
ADULT SEVERITY SCORES @ 10 µM, 5 h (S. mansoni adults): 0
Adult Severity Score (10 µM) 5 h (S. mansoni adults): 0
ADULT SEVERITY SCORES @ 10 µM, 24 h (S. mansoni adults): 0
Adult Severity Score (10 µM) 24 h (S. mansoni adults): 0
IC50 (HepG2-A16-CD81EGFP cells): > 100 µM
EC50 (HepG2-A16-CD81EGFP cells): > 100 µM

Cc1ccc2c(c1)C(=O)N(C(C)c1nc3ccccc3n1Cc1cn(-c3ccc(F)cc3)nn1)C2=O (stereo not shown) [6h’, 2-(1-(1-((1-(4-Fluorophenyl)-1H-1,2,3-triazol-4-yl)methyl)-1H-benzo[d]imidazol-2-yl)ethyl)-5-methylisoindoline-1,3-dione]
melting point: 222 to 224 °C

Cc1ccc2c(c1)C(=O)N(C(C)c1nc3ccccc3n1Cc1cn(-c3c(F)cccc3F)nn1)C2=O (stereo not shown) [6q’, 2-(1-(1-((1-(2,6-Difluorophenyl)-1H-1,2,3-triazol-4-yl)methyl)-1H-benzo[d]imidazol-2-yl)ethyl)-5-methylisoindoline-1,3-dione]
melting point: 166 to 168 °C

Cc1ccc(-n2cc(Cn3c(C(CC(C)C)N4C(=O)c5ccc(C)cc5C4=O)nc4ccccc43)nn2)cc1 (stereo not shown) [6b, 5-Methyl-2-(3-methyl-1-(1-((1-(p-tolyl)-1H-1,2,3-triazol-4-yl)methyl)-1H-benzo[d]imidazol-2-yl)butyl)isoindoline-1,3-dione]
melting point: 160 to 162 °C

Cc1ccc2c(c1)C(=O)N(C(CC(C)C)c1nc3ccccc3n1Cc1cn(-c3ccccc3F)nn1)C2=O (stereo not shown) [6i, 2-(1-(1-((1-(2-Fluorophenyl)-1H-1,2,3-triazol-4-yl)methyl)-1H-benzo[d]imidazol-2-yl)-3-methylbutyl)-5-methylisoindoline-1,3-dione]
melting point: 138 to 140 °C

CCC(C)C(c1nc2ccccc2n1Cc1cn(-c2ccncc2)nn1)N1C(=O)c2ccccc2C1=O (stereo not shown) [6u, 2-(2-Methyl-1-(1-((1-(pyridin-4-yl)-1H-1,2,3-triazol-4-yl)methyl)-1H-benzo[d]imidazol-2-yl)butyl)isoindoline-1,3-dione]
melting point: 101 to 103 °C

CC(c1nc2ccccc2n1Cc1cn(-c2ccccc2)nn1)N1C(=O)c2ccccc2C1=O (stereo not shown) [6a’, 2-(1-(1-((1-Phenyl-1H-1,2,3-triazol-4-yl)methyl)-1H-benzo[d]imidazol-2-yl)ethyl)isoindoline-1,3-dione]
melting point: 187 to 189 °C

CC(c1nc2ccccc2n1Cc1cn(-c2ccccc2F)nn1)N1C(=O)c2ccccc2C1=O (stereo not shown) [6c’, 2-(1-(1-((1-(2-Fluorophenyl)-1H-1,2,3-triazol-4-yl)methyl)-1H-benzo[d]imidazol-2-yl)ethyl)isoindoline-1,3-dione]
melting point: 186 to 188 °C

Cc1ccc2c(c1)C(=O)N(C(CC(C)C)c1nc3ccccc3n1Cc1cn(-c3ccc(F)cc3)nn1)C2=O (stereo not shown) [6a, 2-(1-(1-((1-(4-Fluorophenyl)-1H-1,2,3-triazol-4-yl)methyl)-1H-benzo[d]imidazol-2-yl)-3-methylbutyl)-5-methylisoindoline-1,3-dione]
melting point: 208 to 210 °C

CCC(C)C(c1nc2ccccc2n1Cc1cn(-c2c(F)c(F)c(F)c(F)c2F)nn1)N1C(=O)c2ccc(C)cc2C1=O (stereo not shown) [6s, 5-Methyl-2-(2-methyl-1-(1-((1-(perfluorophenyl)-1H-1,2,3-triazol-4-yl)methyl)-1H-benzo[d]imidazol-2-yl)butyl)isoindoline-1,3-dione]
melting point: 196 to 198 °C

CCC(C)C(c1nc2ccccc2n1Cc1cn(-c2ccc(F)cc2F)nn1)N1C(=O)c2ccc(C)cc2C1=O (stereo not shown) [6r, 2-(1-(1-((1-(2,4-Difluorophenyl)-1H-1,2,3-triazol-4-yl)methyl)-1H-benzo[d]imidazol-2-yl)-2-methylbutyl)-5-methylisoindoline-1,3-dione]
melting point: 89 to 91 °C
